From US8022086B2, “Therapeutic agent for glomerular disease” (Kowa Co., Ltd., priority 2004, dated 2011)

System: rat model of glomerular basement membrane (GBM) nephritis
Experiment: Pharmacological test employing rat model of glomerular basement membrane (GBM) nephritis: urinary total protein excretion
Format: in vivo, Wistar male rats
Conditions: anti-GBM antibody-induced nephritis rats, repeated oral administration for two weeks; for 18-hour urinary total protein excretion: pitavastatin calcium 30 mg/kg, candesartan cilexetil 3 mg/kg, control group 316, N=7; for 18-hour urinary total protein excretion compared with control group (significance): versus no drug administration group
Protocol: Wistar male rats (six weeks old, purchased from Japan Laboratory Animals, Inc.) were quarantined and acclimatized for four days, and employed for the test. Firstly, a rat GBM rabbit IgG antibody was prepared, and then an antibody solution was adjusted with saline upon use to be 31 mg IgG antibody/mL saline. Thereafter, each of the rats was fixated under unanesthetized conditions, and the antibody solution was intravenously administered (1 mL/kg) through the tail vein, whereby progressive renal disorder was induced. The resultant rats were divided into four groups (N=7 for each), and immediately thereafter, the below-described test was carried out. […] In the drug administration groups, the respective drugs were repeatedly orally administered for two weeks. In each of the groups, after completion of two-week drug administration, urine was collected from each rat for 18 hours in a metabolic cage (Product of […] Co., Ltd.), and urinary total protein excretion was measured.

Q: For `O=C(O)C[C@H](O)C[C@H](O)/C=C/c1c(C2CC2)nc2ccccc2c1-c1ccc(F)cc1` [pitavastatin calcium, (3R, 5S, 6B)-7-[2-cyclopropyl-4-(4-fluorophenyl)-3-quinolyl]-3,5-dihydroxy-6-heptenoic acid], which “18-hour urinary total protein excretion” value is on record?
A: 138 mg/18 h/kg

Q: And the “18-hour urinary total protein excretion compared with control group (significance)” value?
A: lower, but not significantly lower

Q: `CCOc1nc2cccc(C(=O)OC(C)OC(=O)OC3CCCCC3)c2n1Cc1ccc(-c2ccccc2-c2nnn[nH]2)cc1` (stereo not shown) [candesartan cilexetil, 1-(cyclohexyloxycarbonyloxy)ethyl 2-ethoxy-1-[[2′-(1H-tetrazol-5-yl)biphenyl-4-yl]methyl]-1H-benzimidazole-7-carboxylate] was tested. Which “18-hour urinary total protein excretion” value did it give?
A: 92 mg/18 h/kg

Q: And the “18-hour urinary total protein excretion compared with control group (significance)” value?
A: lower, but not significantly lower
